Source: a melting point compilation (Tetko et al.; mined from patent text by program, amines drawn as free bases though some values may be those of a salt)

SMILES | melting point [°C]
COC(=O)Nc1c(C#N)cnn1-c1ccc(Cl)c(Cl)c1Cl | 205 to 207
CC(=O)c1ccc(C=C(Cl)Cl)s1 | 81 to 85
COc1cc2nc(Cl)nc(-c3cccc([N+](=O)[O-])c3)c2cc1OC | 228 to 230
CC(=O)OC1CSC(Oc2cccc(Cl)n2)C(OC(C)=O)C1OC(C)=O (stereo not drawn) | 127
CS(=O)c1ccc(CSc2nnc(-c3ccc4[nH]ncc4c3)o2)cc1C(F)(F)F (stereo not drawn) | 170 to 171
O=S(=O)(CC(F)(F)F)N(Cc1cccnc1)c1cccc(Oc2ccccc2O)c1 | 57.5 to 60
O=C(OCc1ccccc1)N1CCOc2c(Br)cc(Cl)cc21 | 95 to 97.7
Cc1c(C(=O)Nc2ccc(N3CCNCC3)c(C#N)c2)cnn1-c1ccc(Cl)cc1 | 184
O=C(O)C(c1ccccc1)n1cnc2[nH]ncc2c1=S (stereo not drawn) | 95 to 98
COC(=O)CCC(=NOCc1ccc(OCc2nc(-c3ccco3)oc2C)c(OC)c1)c1ccccc1 | 67 to 69
CC(C)C1(C)N=C(c2ncc(C=O)cc2C(=O)O)NC1=O (stereo not drawn) | 187 to 198
Nc1ccc(-c2noc(-c3cnn4c(C(F)(F)F)cc(-c5ccc(Cl)c(Cl)c5)nc34)n2)cn1 | 289
CC(C)c1ccc2c(c1)[C@@H](NC(=O)c1ccc(F)cc1)[C@H](O)C(C)(C)O2 (relative stereo) | 235 to 236
Cc1ccnc(Nc2nc(-c3ccccc3O)cs2)c1 | 249 to 250
Nc1cccc(NC(=O)NC2N=C(c3ccccc3F)c3ccccc3N(CC(=O)N3CC4CCC(CC4)C3)C2=O)c1 (racemic) | > 250
O=C1CCCCN1S(=O)(=O)c1ccc(N2CCCCC2)cc1 | 140 to 145
CC1(C)OC(c2ccc(S(N)(=O)=O)cc2)=C(c2cccc(C(F)(F)F)c2)C1=O | 129 to 130
O=C(O)C=CCCCCCc1cccc2cncn12 | 110 to 111
FC(F)(F)c1cccc(-c2cc(C3CCNCC3)nnc2-c2ccncc2)c1 | 148 to 150
c1cc(NC2=NCCO2)c2occc2c1 | 124 to 126
Cc1cccc(NC(=O)NCC(=O)N(CC(=O)OC(C)(C)C)c2ccccc2Nc2ccccc2)c1 | 180
O=C1N(Cc2cc(=O)[nH]c(=O)[nH]2)c2ccccc2C12COc1cc3c(cc12)OCO3 (stereo not drawn) | > 300

SMILES | melting point [°C]
CCCC(C)(O)C(=O)Nc1ccnc(Br)c1 (stereo not drawn) | 102
O=C(O)c1cccc2cc(Oc3c(Cl)cc(NS(=O)(=O)c4ccc(Cl)cc4Cl)cc3Cl)cnc12 | 263 to 266
CC1N(C)c2cc([N+](=O)[O-])ccc2C1(C)C (stereo not drawn) | 55 to 59
Cc1c(C)c(Cl)c(C(=O)c2ccccc2)c(C)c1Cl | 105 to 107
CCCCC12CCC3=C(CCc4cc(OC)ccc43)C1=CCC2=O (stereo not drawn) | 53 to 55
CCOCc1cc2ccc(OCc3ccccc3)cc2oc1=O | 122 to 124
CN(C)c1cc(N)c(C(=O)O)cc1[N+](=O)[O-] | 240 to 250
CCOC(=O)C1CC(=O)NN1c1ncc(Cl)cc1Cl (stereo not drawn) | 105 to 108
O=S(=O)(/C=C/c1ccccc1)CS(=O)(=O)/C=C/c1ccccc1 | 128 to 130
CCOC(=NO)C(=O)C1=Nc2ccccc2C(=O)N(C)C1 | 173 to 174
Cc1sc(-c2ccccc2)nc1COc1ccc(COc2ncccc2CO)cc1 | 111 to 112
Cc1ccnc(NCCCCC(=O)O)c1 | 138 to 140
Fc1ccccc1N1CC2(CCNCC2)c2ccc(Cl)cc21 | 174 to 176
CCCCOCc1cnc2nc(N)[nH]c(=O)c2n1 | > 300
CC(C#N)(c1ccc(Cl)c(C(F)(F)F)c1)c1ccc(N)cc1Cl (stereo not drawn) | 180
CC(C)(C(=O)c1ccc(N2CCCCC2)cc1)N1CCOCC1 | 159 to 162
O=C(Nc1cccc(-c2ccccc2)c1)Nc1ccccc1CCO | 196 to 198
CCOP(=O)(CCN1CCC(N(CCN)S(=O)(=O)c2ccc(Nc3nccc(Nc4ccc(F)c(F)c4)n3)cc2)CC1)OCC | 88 to 90
COc1ccc(C2=Nc3cccnc3Nc3ccccc32)cc1 | 198 to 200
C=CCC1C(=NO)C2CCC1CC2 (stereo not drawn) | 124 to 125
CC(=O)Nc1c(Cl)cnc(OCCO)c1Cl | 131 to 132
CCCCCCCCCCOc1ccc(-c2ccc(C#CCCC(C)OC(C)=O)cc2)cc1 (stereo not drawn) | 80 to 82

Results, then the compound that gave them:

melting point [°C] | SMILES
196 to 197 | CC(C#N)(CNC(=O)c1n[nH]cc1NC(=O)c1ccccn1)Cc1ccccc1 (stereo not drawn)
186 to 187 | Cc1cn(N=Cc2cccnc2)c(=O)n1C
104 to 106 | COCCOc1c(S(C)(=O)=O)ccc(C(=O)O)c1C
182 to 183 | C[C@@H](n1cnc2ccc(Br)cc2c1=O)[C@](O)(Cn1cncn1)c1ccc(F)cc1F
77 to 78 | c1csc(-c2nc(CCOc3ccc(CCCn4ccnc4)cc3)co2)c1
300 to 301 | CC(C)=CC(=O)Nc1ccc2ncnc(Nc3cccc(Br)c3)c2c1
122 to 123 | CC(C)N1C(=O)c2ccc(Cl)nc2C1=O
158 | O=C(C=Cc1ccc([N+](=O)[O-])cc1)N1CCc2c([nH]c3ccccc23)C1c1ccc2c(c1)OCO2 (stereo not drawn)
53 to 56 | CCCSc1nc[nH]n1
141 to 142 | Cc1c(-c2cc(O)c(Cl)cc2F)ncnc1C(F)(F)F
155 | Nc1cnc2cc(F)c(F)cc2c1
166 to 169 | Cc1sc2cc(CCO)ccc2c1C(=O)O
269 to 271 | CC(=O)Nc1ccc(-c2nc(C(=O)Nc3nccs3)c(-c3ccccc3C)[nH]2)cc1
> 250 | O=C(O)C1CCN(C(=O)c2ccccc2SSc2ccccc2C(=O)N2CCC(C(=O)O)CC2)CC1
196 to 198 | COc1cc(F)ccc1CCn1ccn2c(=O)cc(-c3ccncn3)nc12
247 to 249 | Cn1c(=O)c(-c2c(Cl)cccc2Cl)cc2cnc(Nc3ccccc3)nc21
137 to 138 | CCCCNc1cc(CN(Cc2ccccc2)C(=O)c2ccccc2)cc(S(N)(=O)=O)c1Oc1ccccc1
100 to 105 | Cc1cc(Oc2nc(-c3ccccc3)ns2)c(C)cc1N=CN(C)C
92.5 to 93 | Oc1ccccc1CNC1CCN(Cc2ccccc2)CC1
122 to 123 | CCN(CC)c1ccccc1C(=O)O

melting point [°C] | SMILES
90 to 96 | CCCCn1c(=O)c(C(=O)OCC)c(N2CCN(C(=O)c3cccs3)CC2)c2cccnc21
102 to 104 | CCNC(=O)n1nc(Oc2ccc(N)c(C(F)(F)F)c2)cc1C
91 | O=Cc1cc2n(n1)CCOC2
78 to 85 | CC(C)(C)c1ccc(NC(=O)OCC2(COC(=O)Nc3ccc(C(C)(C)C)cc3)CSc3ccccc3C2=O)cc1
262 to 264 | O=c1c(-c2ccc(O)cc2)coc2ncccc12
52.5 to 54 | CCOC(=O)C(Oc1ccc(Cl)cc1)c1ccc(Oc2ccc(Cl)cc2)cc1 (stereo not drawn)
110 to 111 | CON(c1ccc(SC)cc1[N+](=O)[O-])S(=O)(=O)c1ccc(C)cc1
109 | CCCc1ccc(S(=O)(=O)NCc2ccccn2)cc1
138 to 139 | Cc1cc(S(F)(F)(F)(F)F)ccc1C(=O)O
96 | CC(=O)OCCCN1CCC(CNC(=O)[C@@H]2CCCN2S(=O)(=O)c2ccc(Cl)c(COc3cccc4c(-n5ccnc5)cc(C)nc34)c2Cl)CC1
137 to 138 | O=C1c2ccccc2C(=O)N1C[C@H]1CN2C(=O)C[C@@H]2O1 (racemic)
196 to 200 | S=c1[nH]c(=S)c2[nH]cnc2[nH]1
300 to 303 | CCc1ccc2c(c1)C(=O)c1ccc(C(=O)O)cc1S2(=O)=O
98 to 99 | Cc1ccc(-c2cnn(-c3ccc(C)cc3)n2)cc1
29 to 30 | Cc1ccc(S(F)(F)(F)(F)F)cc1[N+](=O)[O-]
82 to 84 | CCCCCCCCCCCCCc1cc(C(=O)O)c[nH]1
144 to 145 | O=C(c1cccnc1)c1cc2cc(Br)ccc2o1
177 to 178 | COc1ccc(C(=O)Nc2cc(-c3c(-c4cccc(C)c4)nc4cccnn34)ccn2)cc1
182 to 186 | CCCCOC(=O)c1c(-c2ccncc2)[nH]c(-c2ccncc2)c1C
> 300 | COc1ccc(N2CCN(c3ccc(-n4c(C)c[nH]c4=O)cc3)CC2)cc1

melting point [°C] | SMILES
289 | CC(C)c1cccc(C(C)C)c1N1C(=O)c2cccc3c(Cl)ccc(c23)C1=O
141 to 142 | CN(C[C@H]1CC[C@H](c2nc3ccccc3n2C)CC1)C(=O)OCc1ccccc1
136 to 138 | Clc1ccc(N2CCN(Cc3cn4cc(Cl)ccc4n3)CC2)c(Cl)c1
186 | CC(=O)Nc1ccc(NCCO)c([N+](=O)[O-])c1
207 to 208 | CCCCn1c(=O)cc(-c2ccc(NCCO)cc2)[nH]c1=O
313 to 314 | N#Cc1ccc(-c2cnc3cnc(-c4ccc(O)cc4)nc3c2)cc1
96 to 98 | CCOC(=O)c1c(C)[nH]c2ccccc12
97 to 98.5 | OCc1sc(Cl)nc1-c1ccc(F)cc1
152 to 153 | Cc1nn(-c2ccc(C(F)(F)F)cn2)cc1COc1cccc(OC(C)(C)C(=O)O)c1
160 to 162 | CC(C)(C)NC(=O)N1C(=O)C(C(=O)c2cccs2)c2ccc(Cl)cc21 (stereo not drawn)
138 to 142 | N#Cc1cccc(NCC(=O)N2CCC(Cc3ccc(F)cc3)CC2)c1
108 to 109 | CCOC(=O)c1c(C)cc2c(c1C)C(=O)O/C2=C\C#N
142 | Clc1ccc2nc(NCc3ccco3)nc(-c3ccccc3)c2c1
142 to 144 | CCCCCCNc1cccc2c1C(=O)c1cccc(NCCCCCC)c1C2=O
180 to 185 | COc1ccc(S(=O)(=O)NCc2ccccc2)c2c1oc1ccccc12
221 to 223 | O=C(NCCCl)Sc1ncnc2nc[nH]c12
99 to 101 | CNC(=O)N(N)CC(C)O (stereo not drawn)
112 | COc1ccc(Cl)c(N)c1C(=O)CCl
72 to 74 | O=C1NC(=O)C(Nc2ccc(CCNC[C@H](O)COc3ccc(Oc4ccccc4)cc3)cc2)S1 (stereo partly drawn)
